This is an account of results in patent publication US20240246960A1 (adMare Therapeutics Society, priority 2021, published 2024).

The structures appear in SMILES notation.

The test concerns the target T1, DNA-PK phosphorylation at Serine 2056 (Homo sapiens, UniProt P78527).
T1 construct: host or cells: FaDu
The experiment in a line: Cellular Assay for Inhibition of DNA-PK Phosphorylation at Serine 2056 (FaDu cells, neocarzinostatin, sandwich ELISA). Type of test: cell-based. To be noted: Table 3. The method, then:
FaDu cells were purchased from ATCC and maintained in MEM alpha medium (Life Technologies, cat. no. 12561) supplemented with 10% fetal bovine serum, and 1% GlutaMAX at 37° C. supplemented with 5% CO2. 50,000 cells were seeded to each well of a 96-well cell culture plate in 50 μL of culture medium and incubated for 16-24 hours. Three-fold serially diluted compounds were prepared in DMSO. Culture media was used to prepare compound treatments to 0.3% DMSO (dimethyl sulphoxide) content. Compound treatments were added to the cells for 1 hour prior incubation, followed by the addition of neocarzinostatin in fresh culture medium to 1 μg/mL final concentration for an additional 2 hours incubation to induce DNA DSBs (double-strand breaks). DMSO controls were incubated with fresh culture medium alone for the additional two hours incubation. The cells were then lysed and frozen at −20° C. Cell lysates were thawed on wet ice and protein concentrations quantified by BCA Protein Assay (Thermo # 23225). Lysis buffer was used to normalize lysates by protein content and all lysates were then investigated by sandwich ELISA by means of DNA-PK-specific antibodies (Abcam ab44815: total DNA-PK; ab124918: phosphoserine-2056 DNA-PK) in sandwich ELISA format on the MSD S600MM platform (MesoScale Discovery). % inhibition was calculated for all data points: =1−(DATA_PT−AVERAGE(DMSO controls))/(AVERAGE(NCS controls)−AVERAGE(DMSO controls)). Logarithm of the molar concentration of compound was plotted against percent inhibition to calculate IC50 values, with curve fit settings for data fit to log(inhibitor) vs. normalized response—Variable slope using curve fit software (GraphPad Prism).
With `CS(=O)(=O)Nc1cnc2cc(N3CCOCC3)nc(O[C@H]3CC[C@@H](Nc4cncc(C(F)(F)F)n4)CC3)c2c1` [LFA1030, N-[7-morpholino-5-[4-[[6-(trifluoromethyl)pyrazin-2-yl]amino]cyclohexoxy]-1,6-naphthyridin-3-yl]methanesulfonamide], the IC50 was in the range of 100 to 1000 nM.

For the molecule `CS(=O)(=O)Nc1cnc2cc(N3CCOCC3)nc(O[C@H]3CC[C@@H](Nc4cncc(C#N)n4)CC3)c2c1` [LFA1031, N-[5-[4-[(6-cyanopyrazin-2-yl)amino]cyclohexoxy]-7-morpholino-1,6-naphthyridin-3-yl]methanesulfonamide], the IC50 was < 100 nM.

For `CS(=O)(=O)Nc1cnc2cc(N3CCOCC3)nc(O[C@H]3CC[C@@H](Nc4nccnc4C#N)CC3)c2c1` [LFA1032, N-[5-[4-[(3-cyanopyrazin-2-yl)amino]cyclohexoxy]-7-morpholino-1,6-naphthyridin-3-yl]methanesulfonamide], the IC50 was < 100 nM.

`CS(=O)(=O)Nc1cnc2cc(N3CCOCC3)nc(O[C@H]3CC[C@@H](Nc4ccnc(C#N)n4)CC3)c2c1` [LFA1033, N-[5-[4-[(2-cyanopyrimidin-4-yl)amino]cyclohexoxy]-7-morpholino-1,6-naphthyridin-3-yl]methanesulfonamide]: the half-maximal inhibitory concentration (IC50) was in the range of 100 to 1000 nM.

Take `CS(=O)(=O)Nc1cnc2cc(N3CCOCC3)nc(O[C@H]3CC[C@@H](Nc4ccccn4)CC3)c2c1` [LFA1034, N-[7-morpholino-5-[4-(2-pyridylamino)cyclohexoxy]-1,6-naphthyridin-3-yl]methanesulfonamide]: the IC50 was < 100 nM.

Turning to `CS(=O)(=O)Nc1cnc2cc(N3CCOCC3)nc(O[C@H]3CC[C@@H](Nc4ccnc(C(F)(F)F)n4)CC3)c2c1` [LFA1035, N-[7-morpholino-5-[4-[[2-(trifluoromethyl)pyrimidin-4-yl]amino]cyclohexoxy]-1,6-naphthyridin-3-yl]methanesulfonamide], the IC50 lay in the range of 100 to 1000 nM.

Turning to `CS(=O)(=O)Nc1cnc2cc(N3CCOCC3)nc(O[C@H]3CC[C@@H](Nc4cnc(C#N)cn4)CC3)c2c1` [LFA1036, N-[5-[4-[(5-cyanopyrazin-2-yl)amino]cyclohexoxy]-7-morpholino-1,6-naphthyridin-3-yl]methanesulfonamide], the IC50 is < 100 nM.

As to `CS(=O)(=O)Nc1cnc2cc(N3CCOCC3)nc(O[C@H]3CC[C@@H](Nc4cnc(C(F)(F)F)cn4)CC3)c2c1` [LFA1037, N-[7-morpholino-5-[4-[[5-(trifluoromethyl)pyrazin-2-yl]amino]cyclohexoxy]-1,6-naphthyridin-3-yl]methanesulfonamide], the IC50 is < 100 nM.

`COc1nc(NC2CCC(Oc3nc(N4CCOCC4)cc4ncc(NS(C)(=O)=O)cc34)CC2)ncc1C#N` (centres unmarked) [LFA1038, N-[5-[4-[(5-cyano-4-methoxy-pyrimidin-2-yl)amino]cyclohexoxy]-7-morpholino-1,6-naphthyridin-3-yl]methanesulfonamide] yielded an IC50 of 100 to 1000 nM.

As to `Cc1nc(N[C@H]2CC[C@@H](Oc3nc(N4CCOCC4)cc4ncc(NS(C)(=O)=O)cc34)CC2)ncc1F` [LFA1039, N-[5-[4-[(5-fluoro-4-methyl-pyrimidin-2-yl)amino]cyclohexoxy]-7-morpholino-1,6-naphthyridin-3-yl]methanesulfonamide;2,2,2-trifluoroacetic acid], the IC50 was < 100 nM.

In the case of `COc1nc(N[C@H]2CC[C@@H](Oc3nc(N4CCOCC4)cc4ncc(NS(C)(=O)=O)cc34)CC2)ncc1C` [LFA1040, N-[5-[4-[(4-methoxy-5-methyl-pyrimidin-2-yl)amino]cyclohexoxy]-7-morpholino-1,6-naphthyridin-3-yl]methanesulfonamide], the IC50 lay within 100 to 1000 nM.

With `CN(C)c1ccnc(N[C@H]2CC[C@@H](Oc3nc(N4CCOCC4)cc4ncc(NS(C)(=O)=O)cc34)CC2)n1` [LFA1041, N-[5-[4-[[4-(dimethylamino)pyrimidin-2-yl]amino]cyclohexoxy]-7-morpholino-1,6-naphthyridin-3-yl]methanesulfonamide], the half-inhibitory concentration (IC50) fell in the range of 100 to 1000 nM.

As to `CS(=O)(=O)Nc1cnc2cc(N3CCOCC3)nc(O[C@H]3CC[C@@H](Nc4nccc(C#N)n4)CC3)c2c1` [LFA1042, N-[5-[4-[(4-cyanopyrimidin-2-yl)amino]cyclohexoxy]-7-morpholino-1,6-naphthyridin-3-yl]methanesulfonamide;2,2,2-trifluoroacetic acid], the IC50 is < 100 nM.

For the molecule `Cc1cc(C#N)nc(N[C@H]2CC[C@@H](Oc3nc(N4CCOCC4)cc4ncc(NS(C)(=O)=O)cc34)CC2)n1` [LFA1043, N-[5-[4-[(4-cyano-6-methyl-pyrimidin-2-yl)amino]cyclohexoxy]-7-morpholino-1,6-naphthyridin-3-yl]methanesulfonamide;2,2,2-trifluoroacetic acid], the half-inhibitory concentration (IC50) was < 100 nM.

As for `CS(=O)(=O)Nc1cnc2cc(N3CCOCC3)nc(O[C@H]3CC[C@@H](Nc4nccc(C(F)(F)F)n4)CC3)c2c1` [LFA1044, N-[7-morpholino-5-[4-[[4-(trifluoromethyl)pyrimidin-2-yl]amino]cyclohexoxy]-1,6-naphthyridin-3-yl]methanesulfonamide], the IC50 lay within 100 to 1000 nM.

With `CS(=O)(=O)Nc1cnc2cc(N3CCOCC3)nc(O[C@H]3CC[C@@H](Nc4cnccn4)CC3)c2c1` [LFA1045, N-[7-morpholino-5-[4-(pyrazin-2-ylamino)cyclohexoxy]-1,6-naphthyridin-3-yl]methanesulfonamide;2,2,2-trifluoroacetic acid], the IC50 was < 100 nM.

In the case of `Cc1ccnc(N[C@H]2CC[C@@H](Oc3nc(N4CCOCC4)cc4ncc(NS(C)(=O)=O)cc34)CC2)n1` [LFA1047], the IC50 is < 100 nM.

For `Cc1cnc(N[C@H]2CC[C@@H](Oc3nc(N4CCOCC4)cc4ncc(NS(C)(=O)=O)cc34)CC2)nc1` [LFA1048, N-[5-[4-[(5-methylpyrimidin-2-yl)amino]cyclohexoxy]-7-morpholino-1,6-naphthyridin-3-yl]methanesulfonamide], the IC50 was < 100 nM.

Take `CN(C)Cc1cnc(N[C@H]2CC[C@@H](Oc3nc(N4CCOCC4)cc4ncc(NS(C)(=O)=O)cc34)CC2)nc1` [LFA1049, N-[5-[4-[[5-[(dimethylamino)methyl]pyrimidin-2-yl]amino]cyclohexoxy]-7-morpholino-1,6-naphthyridin-3-yl]methanesulfonamide]: the IC50 is < 100 nM.

Regarding `Cc1ccc(N[C@H]2CC[C@@H](Oc3nc(N4CCOCC4)cc4ncc(O)cc34)CC2)nc1` [LFA1051, 5-[4-[(5-methyl-2-pyridyl)amino]cyclohexoxy]-7-morpholino-1,6-naphthyridin-3-ol], the IC50 was 100 to 1000 nM.

In turn, `Cc1cnc(N[C@H]2CC[C@@H](Oc3nc(N4CCOCC4)cc4ncc(O)cc34)CC2)c(C)c1` [LFA1052, 5-[4-[(3,5-dimethyl-2-pyridyl)amino]cyclohexoxy]-7-morpholino-1,6-naphthyridin-3-ol] registered an IC50 of 1000 to 10000 nM.

As to `Cc1ccc(N[C@H]2CC[C@@H](Oc3nc(N4CCOCC4)cc4ncc(O)cc34)CC2)cn1` [LFA1053, 5-[4-[(6-methyl-3-pyridyl)amino]cyclohexoxy]-7-morpholino-1,6-naphthyridin-3-ol], the half-maximal inhibitory concentration (IC50) was in the range of 100 to 1000 nM.

`Oc1cnc2cc(N3CCOCC3)nc(O[C@H]3CC[C@@H](Nc4ncc(F)cc4F)CC3)c2c1` [LFA1054, 5-[4-[(3,5-difluoro-2-pyridyl)amino]cyclohexoxy]-7-morpholino-1,6-naphthyridin-3-ol] showed an IC50 of 100 to 1000 nM.

In turn, `Cc1ccncc1N[C@H]1CC[C@@H](Oc2nc(N3CCOCC3)cc3ncc(O)cc23)CC1` [LFA1055, 5-[4-[(4-methyl-3-pyridyl)amino]cyclohexoxy]-7-morpholino-1,6-naphthyridin-3-ol] had an IC50 of 100 to 1000 nM.

Turning to `Oc1cnc2cc(N3CCOCC3)nc(O[C@H]3CC[C@@H](Nc4ccccn4)CC3)c2c1` [LFA1056, 7-morpholino-5-[4-(2-pyridylamino)cyclohexoxy]-1,6-naphthyridin-3-ol], the concentration for half-maximal inhibition (IC50) was < 100 nM.

Consider `Cc1cc(C)nc(N[C@H]2CC[C@@H](Oc3nc(N4CCOCC4)cc4ncc(O)cc34)CC2)n1` [LFA1057, 5-[4-[(4,6-dimethylpyrimidin-2-yl)amino]cyclohexoxy]-7-morpholino-1,6-naphthyridin-3-ol], for which the IC50 was < 100 nM.

The molecule `CN(c1ncccn1)[C@H]1CC[C@@H](Oc2nc(N3CCOCC3)cc3ncc(O)cc23)CC1` [LFA1058, 5-[4-[methyl(pyrimidin-2-yl)amino]cyclohexoxy]-7-morpholino-1,6-naphthyridin-3-ol] came in with a 50% inhibitory concentration (IC50) of 100 to 1000 nM.

On to `Cc1cc(C#N)nc(N[C@H]2CC[C@@H](Oc3nc(N4CCOCC4)cc4ncc(O)cc34)CC2)n1` [LFA1059, 2-[[4-[(3-hydroxy-7-morpholino-1,6-naphthyridin-5-yl)oxy]cyclohexyl]amino]-6-methyl-pyrimidine-4-carbonitrile], for which the IC50 was 100 to 1000 nM.

As to `CN(C)Cc1cnc(N[C@H]2CC[C@@H](Oc3nc(N4CCOCC4)cc4ncc(O)cc34)CC2)nc1` [LFA1060, 5-[4-[[5-[(dimethylamino)methyl]pyrimidin-2-yl]amino]cyclohexoxy]-7-morpholino-1,6-naphthyridin-3-ol], the IC50 was < 100 nM.

Usually IC50 stands for the concentration at which inhibition is half-maximal. Read a high IC50 as weaker potency in that assay.
